Test results taken from ChEMBL document CHEMBL4376819, “The Rise of Molecules Able To Regenerate the Central Nervous System” (J Med Chem, 2020).
pEC50: −log10 of the molar value.

Legend:
[1] = Induction of neurite growth in rat hippocampal neurons incubated for 48 hrs by high content analysis; assay type: functional, cell-based; details: Hippocampal neurone
[2] = Half life in mouse plasma at 10 umol/L measured up to 4 hrs by mass spectrometry; assay type: ADME, cell-free
[3] = Induction of CSPG-treated C57BL/6J mouse DRG neuron growth at 25 uM incubated for 24 hrs by Alexa Fluor 488 staining based assay relative to control; assay type: functional
[4] = Induction of CSPG-treated human induced sensory neuron growth at 2 uM for 24 hrs by immunostaining method relative to control; assay type: functional
[5] = Induction of rat DRG neuron growth assessed as increase in total neurite length at 1 uM incubated for 24 hrs by […] staining based assay relative to control; assay type: functional
Rattus norvegicus = assay: Induction of optic nerve axon regeneration in Sprague-Dawley rat model of optic nerve crush injury assessed as increase in average length of the longest regenerating axons at 100 uM administered intravitreally on day 3,7 and 10 post injury and measured on day 13 post injury by Alexa Fluor 488/CTB-488 staining based confocal microscopic analysis relative to control; assay type: functional

For `O=S(=O)(c1cccc2c(I)cccc12)N1CCCNCC1`, the pEC50 [1] was 7.13.

For `COc1ccc(O)c(C(=O)c2ccc(C(=O)O[C@@H]3CCCNC[C@H]3NC(=O)c3ccncc3)cc2)c1F`, the half-life at 10 µM [2] was under 1 min.

In the case of `COc1ccc([C@@H]2Sc3ccccc3N(CCN(C)C)C(=O)[C@@H]2OC(C)=O)cc1` [DILTIAZEM], the “fold change (FC)” value [3] was 2 and the “fold change (FC)” value [4] was 1.5.

`Cc1ccc(-c2nc(NCCOCCOCCN)nc(N3CCN(c4ccccn4)CC3)n2)cc1` showed an Activity [5] of 50% and an Activity (Rattus norvegicus) of 56%.
